Earlier results, collected in patent US20260297044A1, “INHIBITORS OF SPINSTER HOMOLOG 2 (SPNS2) FOR USE IN THERAPY” (University of Virginia Patent Foundation, priority 2023, published 2026).

Tested on: Spns2
Conditions: two models of kidney fibrosis, mice

In the case of `CCCCCCCCCCc1ccc(-c2noc(CCCN)n2)cc1` [SLF1081851], the fibrosis is listed as “significantly less fibrosis” and the “function of the injured kidney” value is listed as “improved function of the injured kidney”.
